Assay results reported in publication PMC9738591, “N-[1,3-Dialkyl(aryl)-2-oxoimidazolidin-4-ylidene]-aryl(alkyl)sulphonamides as Novel Selective Human Cannabinoid Type 2 Receptor (hCB2R) Ligands; Insights into the Mechanism of Receptor Activation/Deactivation” (Molecules, 2022).
Where two headings read alike, the source gives them in different places.

How the values were obtained:
human CB2R = human CB2R (Homo sapiens, UniProt P34972); experiment: Competition binding assay, displacement of [3H]-CP-55,940 from membranes of HEK-293 cells overexpressing CB2R; parameters: purchased Perkin-Elmer, Italy; host or cells: HEK-293 cells (membranes); conditions: for Ki: [3H]-CP-55,940 displacement, HEK-293 membranes, 90 min at 30 °C, Cheng-Prusoff, read-out: Ki hCB2R (µM ± S.E.)
Chain of human CB2R (P34972 whole entry): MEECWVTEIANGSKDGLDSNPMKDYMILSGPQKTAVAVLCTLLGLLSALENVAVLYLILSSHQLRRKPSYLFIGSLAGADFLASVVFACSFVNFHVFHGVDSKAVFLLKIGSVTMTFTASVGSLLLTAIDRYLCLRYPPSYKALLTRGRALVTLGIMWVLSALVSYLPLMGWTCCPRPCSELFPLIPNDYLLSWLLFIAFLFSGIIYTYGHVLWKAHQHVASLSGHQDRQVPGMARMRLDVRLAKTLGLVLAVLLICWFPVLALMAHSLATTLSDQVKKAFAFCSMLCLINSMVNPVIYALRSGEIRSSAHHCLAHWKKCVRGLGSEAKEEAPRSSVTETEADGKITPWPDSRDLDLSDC
Protocol: (§1) The binding affinities (Ki values) of the compounds for human recombinant hCB1R and hCB2R were determined as previously described, using SR144528 as a reference compound [30], and are reported in Table 1.
(§2) Compound affinity for CB1R and CB2R was measured as previously reported. […] Competition curves were performed by displacing [^3H]-CP-55 940 with increasing concentrations of compounds (0.1 nM–10 or 25 μM). […] All compounds were tested following the procedure described by the manufacturer (Perkin-Elmer, Italy). Displacement curves were generated by incubating drugs with [^3H]-CP-55 940 for 90 min at 30 °C. Ki values were calculated by applying the Cheng−Prusoff equation to the IC50 values for the displacement of the bound radioligand by increasing concentrations of the test compound. Data represent the mean values of three independent experiments performed in duplicate and are expressed as the average of Ki (µM) ± standard deviation. Data were analyzed using PRISM.9.3 software (GraphPad Software Inc, San Diego, CA, USA).

human recombinant CB1R = molecular target: T1, human recombinant CB1R (Homo sapiens, UniProt P21554); experiment: Competition binding assay, displacement of [3H]-CP-55,940 from membranes of HEK-293 cells overexpressing CB1R; conditions: for Ki: [3H]-CP-55,940 displacement, HEK-293 membranes, 90 min at 30 °C, Cheng-Prusoff, read-out: Ki hCB1R (µM ± S.E.); for inhibition at 10 µM: read-out: % Displacement/ Max. Conc. Tested, hCB1R
T1 construct: purchased Perkin-Elmer, Italy; host or cells: HEK-293 cells (membranes)
T1 sequence (P21554 whole entry): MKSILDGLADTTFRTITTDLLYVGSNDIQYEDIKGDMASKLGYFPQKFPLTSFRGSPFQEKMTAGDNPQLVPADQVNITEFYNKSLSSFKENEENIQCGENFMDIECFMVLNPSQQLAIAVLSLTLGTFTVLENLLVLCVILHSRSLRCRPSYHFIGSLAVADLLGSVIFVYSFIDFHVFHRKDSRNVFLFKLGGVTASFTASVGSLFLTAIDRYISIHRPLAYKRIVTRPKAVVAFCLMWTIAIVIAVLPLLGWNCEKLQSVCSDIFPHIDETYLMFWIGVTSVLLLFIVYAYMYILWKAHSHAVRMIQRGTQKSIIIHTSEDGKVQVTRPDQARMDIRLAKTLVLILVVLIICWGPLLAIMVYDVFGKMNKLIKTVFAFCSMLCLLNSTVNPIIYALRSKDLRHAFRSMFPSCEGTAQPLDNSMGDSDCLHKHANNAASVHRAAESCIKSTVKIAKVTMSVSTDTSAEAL
Protocol: as §1, §2

[1] = max conc. tested 10 µM, read-out: % Displacement/ Max Conc. Tested, hCB2R (converted)

inhibition at 10 µM (human recombinant CB1R; max conc. tested 10 µM) [%]	Structure (SMILES)	Ki (human CB2R) [µM]	inhibition at 10 µM (human CB2R; [1]) [%]	Ki (human recombinant CB1R) [µM]	inhibition at 10 µM (human recombinant CB1R) [%]	melting point [°C]	inhibition at 10 µM (human CB2R; read-out: % Displacement/ Max Conc. Tested, hCB2R) [%]
26.9	Cc1ccc(S(=O)(=O)N=C2CN(C)C(=O)N2C)cc1 [Compound 4b, N-[1,3-Dimethyl-2-oxoimidazolidin-4-ylidene]-4-methylbenzenesulfonamide]	> 10	7.08	> 10	–	–	–
–	CC(C)(C)N1C(=O)N(CC2CC2)CC1=NS(=O)(=O)c1ccccc1 [Compound 15, N-[3-tert-Butyl-1-(cyclopropylmethyl)-2-oxoimidazolidin-4-ylidene]benzenesulfonamide]	1.61 ± 0.16	73.9	> 10	0.01	–	–
4.64	CC(C)(C)N1CC(=NS(=O)(=O)c2cccc(Br)c2)N(c2ccccc2)C1=O [Compound 9e, 3-Bromo-N-[1-tert-butyl-2-oxo-3-phenylimidazolidin-4-ylidene]benzenesulfonamide]	> 10	24.1	> 10	–	–	–
–	CC(C)(C)N1CC(=NS(=O)(=O)c2cccc3ccccc23)N(c2ccccc2)C1=O [Compound 9g, N-[1-tert-Butyl-2-oxo-3-phenylimidazolidin-4-ylidene]naphthalene-1-sulfonamide]	> 10	11	> 10	14.8	–	–
–	COCCN1C(=O)N(C(C)(C)C)CC1=NS(C)(=O)=O [Compound 11a, N-[1-tert-Butyl-3-(2-methoxyethyl)-2-oxoimidazolidin-4-ylidene]methanesulfonamide]	> 10	14.1	> 10	65.3	70.5 to 71	–
22.7	CCN1CC(=NS(=O)(=O)c2ccccc2)N(CC)C1=O [Compound 4e, N-[1,3-Diethyl-2-oxoimidazolidin-4-ylidene]benzenesulfonamide]	> 10	7.72	> 10	–	–	–
0	Cc1cc(C)c(S(=O)(=O)N=C2CN(C(C)(C)C)C(=O)N2c2ccccc2)c(C)c1 [Compound 9f, N-[1-tert-Butyl-2-oxo-3-phenylimidazolidin-4-ylidene]-2,4,6-trimethylbenzenesulfonamide]	> 10	47.8	> 10	–	–	–
–	COCCN1C(=O)N(C(C)(C)C)CC1=NS(=O)(=O)c1c(C)cc(C)cc1C [Compound 11f, N-[1-tert-Butyl-3-(2-methoxyethyl)-2-oxoimidazolidin-4-ylidene]-2,4,6-trimethylbenzene-1-sulfonamide]	3.45 ± 0.95	64.8	> 10	55.7	141 to 143.5	–
–	Cc1cc(C)c(S(=O)(=O)N=C2CN(C34CC5CC(CC(C5)C3)C4)C(=O)N2CC2CC2)c(C)c1 [Compound 12f, N-[1-Adamant-1-yl-3-cyclopropylmethyl-2-oxoimidazolidin-4-ylidene]-2,4,6-trimethyl-1-benzenesulfonamide]	> 10	40.2	> 10	59.2	166.5 to 167.5	–
–	CC(C)(C)N1CC(=NS(=O)(=O)c2ccccc2)N(c2ccccc2)C1=O [Compound 9b, N-[1-tert-Butyl-2-oxo-3-phenylimidazolidin-4-ylidene]benzenesulfonamide]	> 10	22.6	> 10	12	–	–
–	CC(C)N1CC(=NS(=O)(=O)c2cccc3ccccc23)N(CC2CC2)C1=O [Compound 13, N-[3-(cyclopropylmethyl)-2-oxo-1-(propan-2-yl)imidazolidin-4-ylidene]naphthalene-1-sulfonamide]	0.8 ± 0.02	78.3	> 10	4.63	–	–
–	CC(C)(C)N1CC(=NS(=O)(=O)c2ccc3ccccc3c2)N(CC2CC2)C1=O [Compound 10h, N-[1-tert-Butyl-3-cyclopropylmethyl-2-oxoimidazolidin-4-ylidene]naphthalene-2-sulfonamide]	0.78 ± 0.17	72.3	> 10	8.18	–	–
–	Cc1ccc(S(=O)(=O)N=C2CN(C(C)(C)C)C(=O)N2c2ccccc2)cc1 [Compound 9c, N-[1-tert-Butyl-2-oxo-3-phenylimidazolidin-4-ylidene]-4-methylbenzenesulfonamide]	> 10	5.39	> 10	7.22	–	–
–	COCCN1C(=O)N(C(C)(C)C)CC1=NS(=O)(=O)c1ccc2ccccc2c1 [Compound 11h, N-[1-tert-Butyl-3-(2-methoxyethyl)-2-oxoimidazolidin-4-ylidene]naphthalene-2-sulfonamide]	> 10	40.1	> 10	45.3	129.5 to 130.5	–
32.8	CN1CC(=NS(=O)(=O)c2ccccc2)N(C)C1=O [Compound 4a, N-[1,3-Dimethyl-2-oxoimidazolidin-4-ylidene]benzenesulfonamide]	> 10	6.19	> 10	–	–	–
–	COCCN1C(=O)N(C(C)(C)C)CC1=NS(=O)(=O)c1cccc2ccccc12 [Compound 11g, N-[1-tert-Butyl-3-(2-methoxyethyl)-2-oxoimidazolidin-4-ylidene]naphthalene-1-sulfonamide]	1.66 ± 0.2	78.7	> 10	13.5	110.5 to 111	–
–	Cc1ccc(S(=O)(=O)N=C2CN(C34CC5CC(CC(C5)C3)C4)C(=O)N2CC2CC2)cc1 [Compound 12c, N-[1-Adamant-1-yl-3-cyclopropylmethyl-2-oxoimidazolidin-4-ylidene]-4-methyl-1-benzenesulfonamide]	> 10	20.6	> 10	34.6	188.5 to 189	–
–	CC(C)(C)N1CC(=NS(=O)(=O)c2ccc3ccccc3c2)N(c2ccccc2)C1=O [Compound 9h, N-[1-tert-Butyl-2-oxo-3-phenylimidazolidin-4-ylidene]naphthalene-2-sulfonamide]	> 10	35.6	> 10	8.35	–	–
14.9	CN1CC(=NS(=O)(=O)c2ccc(Br)cc2)N(C)C1=O [Compound 4d, 4-Bromo-N-[1,3-dimethyl-2-oxoimidazolidin-4-ylidene]benzenesulfonamide]	> 10	10.7	> 10	–	–	–
20.6	CCN1CC(=NS(=O)(=O)c2ccc(Br)cc2)N(CC)C1=O [Compound 4g, 4-Bromo-N-[1,3-diethyl-2-oxoimidazolidin-4-ylidene]benzenesulfonamide]	> 10	13.4	> 10	–	–	–
8.78	CCN1CC(=NS(=O)(=O)c2ccc(C)cc2)N(CC)C1=O [Compound 1, N-[1,3-Diethyl-2-oxoimidazolidin-4-ylidene]-4-methylbenzenesulfonamide]	> 10	7.7	> 10	–	–	–
17.8	CCN1CC(=NS(=O)(=O)c2ccc(Cl)cc2)N(CC)C1=O [Compound 4f, 4-Chloro-N-[1,3-diethyl-2-oxoimidazolidin-4-ylidene]benzenesulfonamide]	> 10	14.9	> 10	–	–	–
–	CC(C)(C)N1CC(=NS(C)(=O)=O)N(c2ccccc2)C1=O [Compound 9a, N-[1-tert-Butyl-2-oxo-3-phenylimidazolidin-4-ylidene]-methanesulfonamide]	> 10	8.84	> 10	9.48	–	–
–	Cc1ccc(S(=O)(=O)N=C2CN(C(C)(C)C)C(=O)N2CC(C)C)cc1 [Compound 14, N-[1-tert-Butyl-3-(2-methylpropyl)-2-oxoimidazolidin-4-ylidene]-4-methylbenzene-1-sulfonamide]	> 10	47.8	> 10	0.02	–	–
47.5	CN1CC(=NS(=O)(=O)c2ccc(Cl)cc2)N(C)C1=O [Compound 4c, 4-Chloro-N-[1,3-dimethyl-2-oxoimidazolidin-4-ylidene]benzenesulfonamide]	> 10	12.3	> 10	–	–	–

Structure (SMILES)	inhibition at 10 µM (human recombinant CB1R; max conc. tested 10 µM) [%]	Ki (human CB2R) [µM]	inhibition at 10 µM (human CB2R; [1]) [%]	Ki (human recombinant CB1R) [µM]	inhibition at 10 µM (human recombinant CB1R) [%]	melting point [°C]	inhibition at 10 µM (human CB2R; read-out: % Displacement/ Max Conc. Tested, hCB2R) [%]
CC(C)(C)N1CC(=NS(=O)(=O)c2ccc(Br)cc2)N(c2ccccc2)C1=O [Compound 9d, 4-Bromo-N-[1-tert-butyl-2-oxo-3-phenylimidazolidin-4-ylidene]benzenesulfonamide]	17.4	> 10	–	–	–	–	53.5
